This is an account of results in patent US20240117402A1, “METHODS FOR (POLY) PEPTIDE TANDEM LIGATION AND CYCLIZATION” (Nanyang Technological University, priority 2021, published 2024).

By Km is commonly meant the substrate concentration at which the rate is half of its maximum. The term Vmax denotes the top rate of the reaction or transport when substrate is in excess.

Where no end group is shown, it is not given here.

For data set [1], the system named is butelase-1. The data set can be described thus: Butelase-1-mediated intermolecular peptide ligation kinetics (HPLC). Type of data set: biochemical. Conditions: for Km / kcat: Butelase-1, limiting substrate 50-800 μM, partner peptide constant. As to the method: (§1) FIG. 3. Kinetic studies on VyPAL2- and butelase 1-catalyzed intermolecular ligations. A) Peptide 1 (SEQ ID NO:7) containing the C-terminal NHV sequence was used at varying concentrations (50 — 800 μM) to react with peptide 2 (SEQ ID NO:8) at constant concentration (1 mM); B) Peptide 4 (SEQ ID NO:9) at a constant concentration (1.5 mM) was reacted with the GF-peptide 5 (SEQ ID NO:10) at varying concentrations (50-800 μM). C) Peptide 2 at a constant concentration (1.5 mM) was reacted with the -NGF peptide 7 (SEQ ID NO:11) at varying concentrations (50-800 μM). The ligation product 3 or 6 was confirmed by ESI-MS. The reaction rates were calculated from the consumption of the limiting substrate 1, 5 or 7. Initial rate (V0) at different concentrations of the limiting substrate were used for Michaelis-Menten curve plotting. For each kinetic calculation, a lineweaver-Burk plot was also used to confirm the analysis.
(§2) PAL enzymes have been used extensively for protein single-site labeling and macrocyclization. However, using two PALs of different substrate specificity for bio-orthogonal and dual ligation remains unexplored. […] To determine the differences quantitatively, firstly the kinetics of VyPAL2 and butelase-1 toward peptide 1 or 7 which has a C-terminal NHV or NGF tripeptide motif respectively were studied (Table 1). The nucleophile substrate, used at a constant concentration, was peptide 2 which contains an N-terminal GI dipeptide motif. Reverse-phase analytical HPLC was used to monitor and quantify the ligation reaction. […] Similarly, kinetics of the two ligases towards a GF-starting nucleophile substrate, peptide 5, were also examined.
(§3) In this case, the acyl substrate, now kept at a constant concentration for the kinetic study, was peptide 4 which contains NGL at the C-terminus, a favorable motif for both VyPAL2 and butelase-1. It was shown that VyPAL2 has 5-fold catalytic efficiency than butelase-1 towards the GF-peptide substrate 5 (Table 1 and FIG. 3). In summary, the kinetic studies confirm the differential activities of butelase-1 and VyPAL2 toward certain substrate sequences, which provide strong support for a two-PAL, bio-orthogonal tandem ligation scheme for protein dual labeling.

Data set [2] deals with VyPAL2. The data set can be described thus: VyPAL2-mediated intermolecular peptide ligation kinetics (HPLC). Type of data set: biochemical, Viola yedoensis. The following applies: for Km / kcat: VyPAL2, limiting substrate 50-800 μM; for Km: partner peptide constant; for kcat: partner peptide constant (1 with 2 at 1 mM; 5 with 4 at 1.5 mM; 7 with 2 at 1.5 mM); for catalytic activity/efficiency of VyPAL2 relative to butelase-1 towards the substrate: intermolecular ligation. As to the method: as §1, §2, §3
Sequence of VyPAL2 (as listed by the source): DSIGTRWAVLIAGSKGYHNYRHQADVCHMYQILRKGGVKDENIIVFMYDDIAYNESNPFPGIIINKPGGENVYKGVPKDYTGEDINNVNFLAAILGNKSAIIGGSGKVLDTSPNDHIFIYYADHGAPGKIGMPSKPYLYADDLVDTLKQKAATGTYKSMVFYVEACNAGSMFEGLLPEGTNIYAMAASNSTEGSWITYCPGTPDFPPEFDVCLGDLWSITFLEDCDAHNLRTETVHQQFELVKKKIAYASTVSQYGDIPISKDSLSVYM

For data set [3], the system named is butelase-1. The data set can be described thus: Butelase-1-catalyzed peptide cyclization (substrate screen, pH scan, kinetics). Type of data set: biochemical. Conditions: for substrate preference among P1-Asp peptides: 25 nM butelase-1, 5 μM peptide, pH 4.5, 25° C., 60 min. The procedure:
(§4) FIG. 9. Screening of P1′-Asp peptides for cyclization by A) VyPAL2, B) butelase-1 and C) OaAEP1b. Quantitative summary of reaction yields of the reaction mixtures. For each reaction, 25 nM of the enzyme and 5 μM of the peptide substrate (21a-21i) were mixed and reacted at pH 4.5, 25° C. for 60 min. The positive control peptide 21j was performed at the same conditions except at pH 7.4. Average yields and SDs were calculated from experiments performed in triplicate. The amino acid sequence of the peptides used are set forth in SEQ ID Nos. 15-24.
(§5) FIG. 10. Ligation activity of three different ligases under different pH and substrate. Cyclization activity of A) VyPAL2, B) Butelase-1 or C) OaAEP1b towards substrate 21e-DSL and 21j-NGL; Fold difference was calculated using the cyclization rate of 21j-NGL divided by that of 21e-DSL. All the results were the average reaction rate at different pH in triplicate experiments based on MALDI-TOF analysis. Light grey text in the “Fold difference” axis marks to the maximum fold difference.
(§6) FIG. 11. Enzymatic activity of three different ligases on the cyclization reaction of P1-Asp peptide 21e-DSL or 21a-DGL and P1-Asn-peptide 21j-NGL. A) Scheme of PAL-mediated P1-Asp peptide cyclization; B) Enzymatic kinetics of VyPAL2 in cyclizing 21e-DSL at pH 4.5; C) Enzymatic kinetics of VyPAL2 in cyclizing 21e-DSL at pH 7.0; D) Enzymatic kinetics of OaAEP1b in cyclizing 21a-DGL at pH 5.5; E) Enzymatic kinetics of Butelase-1 in cyclizing 21e-DSL at pH 4.5. F) Scheme of PAL-mediated cyclization of peptide 21j-NGL; G). Enzymatic kinetics of butelase-1 in cyclizing […] at pH 4.5; H)
(§7) Enzymatic kinetics of VyPAL2 in cyclizing 21j-NSL at pH 4.5; I) Enzymatic kinetics of butelase-1 in cyclizing 21j-NSL at pH 7.4; J) Enzymatic kinetics of OaAEP1b in cyclizing 21j-NSL at pH 7.0. Sequences of peptides used are set forth in SEQ ID Nos. 15, 19, 24.
(§8) PALs recognize a tripeptide motif Asx-P1′-P2′ in the acyl donor substrate for their catalyzed ligation reactions. Because the formation of the acyl-enzyme thioester intermediate is the rate-limiting step, the leaving group P1′-P2′ also plays an important role in determining the catalytic kinetics of a particular 40 PAL-mediated reaction. Previous studies have determined Leu as a preferred P2′ residue. To identify the most favorable P1′ residues for PAL-catalyzed Asp-ligation, a panel of peptides (peptide 21a-21j) with C-terminal DXL and N-terminal GI motifs was synthesized and cyclization reactions performed. Peptide 21j with a C-terminal NGL, a P1-Asn peptide favored by VyPAL2, was used for comparison with the P1-Asp peptides 21a-21i. […] Meanwhile, the P1′ substrate specificities of the two other ligases - Butelase-1 and OaAEP1b - were also evaluated by using the same substrates 21a-21j.
A pH scan experiment with the other two ligases: butelase-1 and OaAEP1 b, for their cyclase activity on 21e and 21j was also conducted. […] In fact, the difference in reaction efficiency between 21j and 21e was about 950 times at pH 7.4 (FIG. 10). […] This makes VyPAL2 a more efficient ligase than butelase-1 for Asp-mediated protein modification.

Data set [4] deals with VyPAL2. The data set can be described thus: VyPAL2-catalyzed peptide cyclization (substrate screen, pH scan, kinetics). Type of data set: biochemical, Viola yedoensis. As to the method: as §4, §5, §6, §7, §8
scanning experiment using the two peptides 21e and 21j was performed. Cyclization reactions were conducted by mixing 5 μM of peptide 21e or 50 μM of 21j with 25 nM of VyPAL2 over a pH range of 4.0 to 7.4. Results confirmed that the optimum pH for the cyclization of the P1-Asn peptide 21j was 6.5-7.4. But for the P1-Asp peptide 21e (which has the C-terminal DSL tripeptide), the optimum pH was 4.0-4.5.
It is worth noting that, at pH 7.4, VyPAL2 processed peptide 21j for cyclization at a rate that is >1000 folds faster than processing peptide 21e (FIG. 10). This enormous difference of reactivity essentially established the orthogonality for ligation at Asn in the presence of aspartyl bonds.

Data set [5] deals with T1, Peptide 21j (SEQ ID NO:24), GISTKSIPPISYRNGL
T1 chain: GISTKSIPPISYRNGL

The target in data set [6] is T2, Peptide 1 (SEQ ID NO:7), Ac-KKLAVINHV
T2 chain: KKLAVINHV

Data set [7] concerns the target T3, Peptide 5 (SEQ ID NO:10), GFGGIKA.
T3 chain: GFGGIKA

Data set [8] deals with T4, Peptide 21e (SEQ ID NO:19), GISTKSIPPISYRDSL
T4 chain: GISTKSIPPISYRDSL

For data set [9], the target named is T5, Peptide 7 (SEQ ID NO:11), Ac-KKLAVINGF
T5 chain: KKLAVINGF

The mark [10] stands for this setting: Butelase-1, cyclization, pH 4.5.

In the case of “Ac-KKLAVINGF (Ac-KKLAVINGF-NH2) [Peptide 7]”, in the data set with butelase-1 [1], the Km worked out at 175 ± 1 µM and the kcat turned out to be 0.46 ± 0.04 S^−1. In addition, in the data set with VyPAL2 [2], the Km was 155 ± 15 µM, the kcat worked out at 1.10 ± 0.03 S^−1 and the “catalytic activity/efficiency of VyPAL2 relative to butelase-1 towards the substrate” value was “about 3 times”.

On to “Ac-KKLAVINHV (Ac-KKLAVINHV-NH2) [Peptide 1]”, for which, in the data set with butelase-1 [1], the Km came out at 85 ± 3 µM and the kcat is 1.47 ± 0.04 S^−1. Besides, the “catalytic activity of butelase-1 relative to VyPAL2 towards the substrate” value in the data set with butelase-1 [1] (intermolecular ligation) is “about 18 times”. In addition, in the data set with VyPAL2 [2], the Michaelis-Menten constant (Km) was determined as 182 ± 6 µM and the kcat was found to be 0.17 ± 0.01 S^−1.

On to GFGGIKA (GFGGIKA-NH2) [Peptide 5], for which, in the data set with butelase-1 [1], the Km was 365 ± 3 µM and the kcat amounted to 1.55 ± 0.01 S^−1. Besides, in the data set on VyPAL2 [2], the Km came out at 424 ± 26 µM, the kcat stood at 8.29 ± 0.48 S^−1 and the “catalytic activity/efficiency of VyPAL2 relative to butelase-1 towards the substrate” value was found to be 5 times.

Regarding “GISTKSIPPISYRDKL (GISTKSIPPISYRDKL-NH2) [Peptide 21g]”, the “substrate preference among P1-Asp peptides” value in the data set on butelase-1 [3] was “slight preference”.

With “GISTKSIPPISYRDLL (GISTKSIPPISYRDLL-NH2) [Peptide 21d]”, the “substrate preference among P1-Asp peptides” value with butelase-1 [3] is “slight preference”.

“GISTKSIPPISYRDQL (GISTKSIPPISYRDQL-NH2) [Peptide 21h]”: the “substrate preference among P1-Asp peptides” value with butelase-1 [3] is on record as “slight preference”.

As to “GISTKSIPPISYRDRL (GISTKSIPPISYRDRL-NH2) [Peptide 21f]”, in the data set on butelase-1 [3], the “substrate preference among P1-Asp peptides” value is “least favored P1-Asp substrate”.

In the case of “GISTKSIPPISYRDSL (GISTKSIPPISYRDSL-NH2) [Peptide 21e]”, the Km with butelase-1 [3] (setting [10]) came out at 16.6 ± 2.3 µM; with VyPAL2 [4] (VyPAL2, cyclization, pH 4.5), 25.6 ± 2.6 µM; in the data set with VyPAL2 [4] (VyPAL2, cyclization, pH 7.0), 42.3 ± 2.8 µM. In addition, the kcat with butelase-1 [3] (setting [10]) amounted to 0.11 ± 0.01 s⁻¹; in the data set with VyPAL2 [4] (VyPAL2, cyclization, pH 4.5) it was 0.28 ± 0.023 s⁻¹; with VyPAL2 [4] (VyPAL2, cyclization, pH 7.0), 0.021 ± 0.001 s⁻¹. For the same molecule, the “cyclization rate among P1-Asp peptides 21a-21i” value in the data set on VyPAL2 [4] (25 nM VyPAL2, 5 μM peptide, pH 4.5, 25° C., 60 min) is “fastest cyclization rate”. The “optimum pH for cyclization” value in the data set on VyPAL2 [4] (25 nM VyPAL2, pH range 4.0 to 7.4, 5 μM 21e or 50 μM 21j) is recorded as 4.0-4.5. Further, the maximum rate (Vmax) with VyPAL2 [4] (VyPAL2, cyclization, pH 7.4) came out at 0.004 µM/min.

B1: butelase-1 (asparaginyl ligase, active form, SEQ ID NO:2) (protein)
chain: VEGTRWAVLVAGSKGYVNYRHQADVCHAYQILKKGGLKDENIIVFMYDDIAYNESNPHPGVIINHPYGSDVYKGVPKDYVGEDINPPNFYAVLLANKSALTGTGSGKVLDSGPNDHVFIYYTDHGGAGVLGMPSKPYIAASDLNDVLKKKHASGTYKSIVFYVESCESGSMFDGLLPEDHNIYVMGASDTGESSWVTYCPLQHPSPPPEYDVCVGDLFSVAWLEDCDVHNLQTETFQQQYEVVKNKTIVALIEDGTHVVQYGDVGLSKQTLFVYMGTDPAN
On to B1, for which, in data set [5], the Km, cyclization at pH 4.5 was determined as 12.7 µM; the Km, cyclization at pH 7.4 is 13.5 µM; the kcat, cyclization at pH 4.5 came to 0.6 s⁻¹; the kcat, cyclization at pH 7.4 came to 9.4 s⁻¹. In addition, in data set [5], the kcat/Km, cyclization at pH 4.5 worked out at 47100 ± 3740 M^-1s^-1 and the kcat/Km, cyclization at pH 7.4 was 714200 ± 5390 M^-1s^-1. In data set [6], the Km, intermolecular ligation of peptide 1 (varied) with nucleophile peptide 2 came out at 85 µM; the kcat, intermolecular ligation of peptide 1 (varied) with nucleophile peptide 2 is 1.47 S^-1; the kcat/Km, intermolecular ligation of peptide 1 (varied) with nucleophile peptide 2 is 17300 M^-1S^-1. In addition, in data set [7], the Km, intermolecular ligation of GF-peptide 5 (varied) with acyl substrate peptide 4 came out at 365 µM; the kcat, intermolecular ligation of GF-peptide 5 (varied) with acyl substrate peptide 4 was 1.55 S^-1; the kcat/Km, intermolecular ligation of GF-peptide 5 (varied) with acyl substrate peptide 4 was 4260 M^-1S^-1. Besides, in data set [8], the Km, cyclization at pH 4.5 came out at 16.6 µM; the kcat, cyclization at pH 4.5 is 0.11 s⁻¹; the kcat/Km, cyclization at pH 4.5 amounted to 7210 ± 489 M^-1s^-1. For the same molecule, in data set [9], the Km, intermolecular ligation of peptide 7 (varied) with nucleophile peptide 2 was 175 µM; the kcat, intermolecular ligation of peptide 7 (varied) with nucleophile peptide 2 was 0.46 S^-1; the kcat/Km, intermolecular ligation of peptide 7 (varied) with nucleophile peptide 2 was 2650 M^-1S^-1.
